This passage reports Kd results from patent US9284283B2, “Macrocyclic compounds for modulating IL-17” (ENSEMBLE THERAPEUTICS CORPORATION, priority 2012, dated 2016).

pKd: −log10 of the molar value. Where “and” joins values, the source holds several entries; their conditions need not be identical. Equal entries are not always repeated.

What is called pKd is the Kd on a negative log10 scale, so that one unit is a factor of ten.

This test addresses T1, IL17A (Homo sapiens, UniProt Q16552).
T1 sequence (Q16552 24-155): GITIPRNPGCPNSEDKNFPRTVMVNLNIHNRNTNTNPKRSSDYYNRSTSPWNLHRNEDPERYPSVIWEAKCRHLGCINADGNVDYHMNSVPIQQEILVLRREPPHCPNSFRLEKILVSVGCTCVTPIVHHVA
Description: Surface Plasmon Resonance (SPR) analysis of compound interactions with IL17A. The following applies: SPR binding to IL17A. Here is the method:
SPR analysis was carried out with a GE Healthcare (Piscataway, N.J.) Biacore X100 system. Typically, the chip (NTA Biacore Biosensor chip; GE Healthcare BR-1000-34) was first conditioned by injection of 0.35 M EDTA, which also served to remove any immobilized proteins from previous runs. Before immobilization of the recombinant 6-His-tagged IL17, the chip was washed with 0.5 mM nickel chloride in NTA buffer (10 mM HEPES buffer, 0.15 M sodium chloride, 10 μM ethylene diamine tetraacetic acid, 0.005% v/v surfactant P20 (GE Healthcare BR-1000-54)) to form a nickel chelate on the chip. IL17 protein was immobilized onto a NTA chip through its 6-His tag. IL17A was typically injected at 0.25 μM for 60-120 seconds, followed by a stabilization step washing with NTA+0.5% DMSO for 120 seconds or longer.
Five 2-fold or 3-fold serial dilutions of test compound were injected serially onto the chip. All steps were conducted using NTA buffer containing 0.5% v/v dimethylsulfoxide (DMSO). Compounds were diluted from stock solutions of 10 mM concentration in 100% DMSO with NTA buffer to obtain 50 μM solutions in NTA+0.5% DMSO. Subsequent 2× or 3× dilutions were made in NTA+0.5% DMSO. Compound was generally injected for 180 seconds followed by washing the chip in buffer alone for 120 seconds. The rate of refractive index change (RU units/time) and the maximum extend of RU change was measured during the “on” phase of analyte injection, followed by measuring the rate during the “off” phase.
Kinetic parameter fits were conducted using the Biacore SPR Evaluation Program (GE Healthcare) for 1:1 molecular binding fits, after subtracting the baseline average of 2 or more runs in which no analyte was injected. This program then reports the best fit average for the “on” rate (Ka), the “off” rate (Kd) and the dissociation constant (KD) (Chaiken, I et al., Anal Biochem 201, 197-210 (1992)). A separate program in the Biacore SPR Evaluation Program then calculates the best fit for Kd based upon the extent of binding alone (RU units bound) at each concentration of analyte and reports the best fit Kd by best fit to a Lineweaver-Burke plot. Typically, the Kd value calculated through both means agreed within a factor of three.
The presence and activity of IL17 on the NTA chip was routinely confirmed three ways: • 1) An increase in response units (RU) upon immobilization confirms that the IL17 was immobilized on the chip; • 2) Anti-IL17 was also injected on the chip to confirm the presence of IL17; and • 3) IL17R was injected onto the chip to confirm that the immobilized IL17 retained its binding activity for its receptor. Negative controls to access specificity for compound binding were conducted by immobilizing unrelated, but his-tagged, proteins (such as cyclophilin D) and conducting the same analysis as done with IL17A.
(In general: SPR reads the build-up and loss of mass on a sensor chip optically.)
Turning to `COC(=O)[C@H]1CCCCNC(=O)CCCNC(=O)[C@@H](Cc2ccc(NC(=O)[C@H](Cc3ccccc3F)NC(=O)c3ccccc3)cc2)NC(=O)CC2(CCCC2)CC(=O)N1` [Compound 136], the pKd was over 7.00.

Turning to `CC(=O)N[C@@H](Cc1ccccc1Cl)C(=O)Nc1ccc(C[C@H]2NC(=O)CC3(CCCC3)CC(=O)N(CCO)CCCCCNC(=O)CCCNC2=O)cc1` [Compound 173], the pKd is over 7.00.

As to `CC(=O)N[C@@H](Cc1ccccc1Cl)C(=O)Nc1ccc(C[C@H]2NC(=O)CC3(CCCC3)CC(=O)NCCCCCNC(=O)CCNC2=O)cc1` [Compound 154], the pKd was over 7.00.

In turn, `O=C1CCNC(=O)[C@@H](Cc2ccc(NC(=O)[C@H](Cc3ccccc3Cl)NC(=O)Cc3ccccc3)cc2)NC(=O)CC2(CCCC2)CC(=O)NCCCN1` [Compound 157] had a pKd of over 7.00.

Turning to `CC(=O)N[C@@H](Cc1ccccc1Cl)C(=O)Nc1ccc(C[C@H]2NC(=O)CC3(CCCC3)CC(=O)NCCCCNC(=O)CCCNC2=O)cc1` [Compound 167], the pKd was over 7.00.

Consider `COC(=O)[C@@H]1CCCCNC(=O)CCCNC(=O)[C@H](Cc2ccc(NC(=O)[C@H](Cc3ccccc3F)NC(=O)Cc3ccccc3)cc2)NC(=O)CC2(CCCC2)CC(=O)N1` [Compound 105], for which the pKd was 5.00 to 6.00 and 6.00 to 7.00.

Turning to `COC(=O)[C@@H]1CCCCNC(=O)CCCNC(=O)[C@@H](Cc2ccc(NC(=O)[C@H](Cc3ccccc3C)NC(=O)Cc3ccccc3)cc2)NC(=O)CC2(CCCC2)CC(=O)N1` [Compound 126], the pKd is 6.00 to 7.00.

With `COC(=O)[C@H]1CCCCNC(=O)C(C)(C)NC(=O)[C@@H](Cc2ccc(NC(=O)[C@H](Cc3ccccc3Cl)NC(=O)Cc3ccccc3)cc2)NC(=O)CC2(CCCC2)CC(=O)N1` [Compound 145], the pKd was over 7.00.

As for `O=C1CNC(=O)[C@@H](Cc2ccc(NC(=O)[C@H](Cc3ccccc3Cl)NC(=O)Cc3ccccc3)cc2)NC(=O)CC2(CCCC2)CC(=O)NCCCN1` [Compound 156], the pKd is over 7.00.

Turning to `O=C1CCCNC(=O)[C@@H](Cc2ccc(NC(=O)[C@H](Cc3ccccc3Cl)NC(=O)Cc3ccccc3)cc2)NC(=O)CC2(CCCC2)CC(=O)N(CCO)CCCCCN1` [Compound 172], the pKd is over 7.00.

As to `CC(=O)N[C@@H](Cc1ccccc1Cl)C(=O)Nc1ccc(C[C@H]2NC(=O)CC3(CCCC3)CC(=O)NCCCCNC(=O)CNC2=O)cc1` [Compound 163], the pKd was over 7.00.

Take `COC(=O)[C@@H]1CCCCNC(=O)CCCNC(=O)[C@@H](Cc2ccc(NC(=O)[C@H](Cc3ccccc3)NC(=O)Cc3ccc(C(F)(F)F)cc3)cc2)NC(=O)CC2(CCCC2)CC(=O)N1` [Compound 140]: the pKd is 6.00 to 7.00.

`COC(=O)[C@@H]1CCCCNC(=O)CCCNC(=O)[C@H](Cc2ccc(NC(=O)[C@H](Cc3ccccc3F)NC(=O)c3ccccc3)cc2)NC(=O)CC2(CCCC2)CC(=O)N1` [Compound 137] gave a pKd of 6.00 to 7.00.

`O=C1CNC(=O)[C@@H](Cc2ccc(NC(=O)[C@H](Cc3ccc(Cl)cc3Cl)NC(=O)Cc3ccccc3)cc2)NC(=O)CC2(CCCC2)CC(=O)NCCOCCN1` [Compound 210] gave a pKd of over 7.00.

As to `O=C1CNC(=O)[C@@H](Cc2ccc(NC(=O)[C@H](Cc3ccccc3Cl)NC(=O)c3ccncc3)cc2)NC(=O)CC2(CCCC2)CC(=O)NCCCCCN1` [Compound 208], the negative logarithm of the Kd (pKd) was over 7.00.

Regarding `O=C1CCCNC(=O)[C@@H](Cc2ccc(NC(=O)[C@H](Cc3ccccc3F)NC(=O)Cc3ccccc3)cc2)NC(=O)CC2(CCCC2)CC(=O)N[C@H](C(=O)O)CCCCN1` [Compound 175], the pKd is 6.00 to 7.00.

Turning to `CC(=O)N[C@@H](Cc1ccccc1Cl)C(=O)Nc1ccc(C[C@H]2NC(=O)CC3(CCCC3)CC(=O)NCCCNC(=O)CNC2=O)cc1` [Compound 152], the pKd was 6.00 to 7.00.

For the compound `COC(=O)[C@@H]1CCCCNC(=O)CCCNC(=O)[C@@H](Cc2ccc(NC(=O)[C@H](Cc3ccccc3Br)NC(=O)c3ccccc3)cc2)NC(=O)CC2(CCCC2)CC(=O)N1` [Compound 121], the pKd is 6.00 to 7.00.

Turning to `COC(=O)[C@@H]1CCCCNC(=O)CNC(=O)[C@@H](Cc2ccc(NC(=O)[C@H](Cc3ccccc3F)NC(=O)c3ccccc3)cc2)NC(=O)CC2(CCCC2)CC(=O)N1` [Compound 151], the pKd is over 7.00.

Regarding `CC(=O)N[C@@H](Cc1ccccc1Cl)C(=O)Nc1ccc(C[C@H]2NC(=O)CC3(CCCC3)CC(=O)NCCCCNC(=O)CCNC2=O)cc1` [Compound 165], the pKd was over 7.00.

As for `COC(=O)[C@@H]1CCCCNC(=O)CCCNC(=O)[C@@H](Cc2ccc(NC(=O)[C@H](Cc3ccccc3C)NC(=O)c3ccccc3)cc2)NC(=O)CC2(CCCC2)CC(=O)N1` [Compound 127], the pKd was 6.00 to 7.00.

Take `COC(=O)[C@@H]1CCCCNC(=O)CCCNC(=O)[C@@H](Cc2ccc(NC(=O)[C@H](Cc3ccc(-c4ccccc4)cc3)NC(=O)c3ccccc3)cc2)NC(=O)CC2(CCCC2)CC(=O)N1` [Compound 125]: the negative logarithm of the Kd (pKd) is 6.00 to 7.00.

`O=C1CNC(=O)[C@@H](Cc2ccc(NC(=O)[C@H](Cc3ccc(O)cc3)NC(=O)Cc3ccc(O)cc3)cc2)NC(=O)CC2(CCCC2)CC(=O)NCCCCCN1` [Compound 189] showed a pKd of over 7.00.

Regarding `COC(=O)[C@@H]1Cc2ccc(cc2)NC(=O)CCCNC(=O)[C@@H](Cc2ccc(NC(=O)[C@H](Cc3ccccc3F)NC(=O)c3ccccc3)cc2)NC(=O)CC2(CCCC2)CC(=O)N1` [Compound 134], the pKd was 6.00 to 7.00.

For the compound `COC(=O)[C@@H]1CCCCNC(=O)CCCNC(=O)[C@@H](Cc2ccc(NC(=O)[C@H](Cc3ccccc3)NC(=O)Cc3ccccc3)cc2)NC(=O)CC2(CCCC2)CC(=O)N1` [Compound 114], the pKd was 6.00 to 7.00.

Take `COC(=O)[C@@H]1CCCCNC(=O)CCCNC(=O)[C@@H](Cc2ccc(NC(=O)[C@H](Cc3ccc(F)cc3)NC(=O)c3ccccc3)cc2)NC(=O)CC2(CCCC2)CC(=O)N1` [Compound 119]: the pKd was 6.00 to 7.00.

Turning to `COC(=O)[C@@H]1CCCCNC(=O)CCCNC(=O)[C@@H](Cc2ccc(NC(=O)[C@H](Cc3cccc(F)c3)NC(=O)c3ccccc3)cc2)NC(=O)CC2(CCCC2)CC(=O)N1` [Compound 117], the pKd was 6.00 to 7.00.

As to `O=C1CC2(CCCC2)CC(=O)N[C@@H](C(=O)O)CCCCNC(=O)[C@H](Cc2ccc(NC(=O)[C@H](Cc3ccccc3F)NC(=O)Cc3ccccc3)cc2)N1` [Compound 102], the pKd is under 5.00.

As to `COC(=O)[C@H]1CCCCNC(=O)CNC(=O)[C@@H](Cc2ccc(NC(=O)[C@H](Cc3ccccc3F)NC(=O)c3ccccc3)cc2)NC(=O)CC2(CCCC2)CC(=O)N1` [Compound 150], the negative-log Kd (pKd) was over 7.00.

Regarding `CC[C@H](C)[C@H](NC(=O)c1ccccc1)C(=O)Nc1ccc(C[C@H]2NC(=O)CC3(CCCC3)CC(=O)N[C@H](C(=O)OC)CCCCNC(=O)CCCNC2=O)cc1` [Compound 123], the pKd is 5.00 to 6.00.

For `COC(=O)[C@@H]1CCCCNC(=O)CCCNC(=O)[C@@H](Cc2ccc(NC(=O)[C@H](Cc3ccccc3F)NC(=O)c3ccccc3)cc2)NC(=O)CC2(CCCC2)CC(=O)N1` [Compound 128], the pKd was 6.00 to 7.00.

In turn, `COC(=O)[C@H]1CCCCNC(=O)CCCNC(=O)[C@H](Cc2ccc(NC(=O)[C@H](Cc3ccccc3F)NC(=O)Cc3ccccc3)cc2)NC(=O)CC2(CCCC2)CC(=O)N1` [Compound 101] showed a pKd of 5.00 to 6.00.

The compound `O=C1CCNC(=O)[C@@H](Cc2ccc(NC(=O)[C@H](Cc3ccccc3Cl)NC(=O)Cc3ccccc3)cc2)NC(=O)CC2(CCCC2)CC(=O)NCCCCCN1` [Compound 160] had a negative-log Kd (pKd) of over 7.00.

Take `O=C1CCNC(=O)[C@@H](Cc2ccc(NC(=O)[C@H](Cc3ccccc3Cl)NC(=O)Cc3ccccc3)cc2)NC(=O)CC2(CCCC2)CC(=O)N(CCO)CCCCCN1` [Compound 170]: the pKd is over 7.00.

In the case of `O=C1CCCNC(=O)[C@@H](Cc2ccc(NC(=O)[C@H](Cc3ccccc3Cl)NC(=O)Cc3ccccc3)cc2)NC(=O)CC2(CCCC2)CC(=O)NCCCCCN1` [Compound 161], the negative-log Kd (pKd) is over 7.00.

With `COC(=O)[C@H]1CCCCNC(=O)C(C)(C)NC(=O)[C@@H](Cc2ccc(NC(=O)[C@H](Cc3ccccc3Cl)NC(=O)c3ccccc3)cc2)NC(=O)CC2(CCCC2)CC(=O)N1` [Compound 146], the pKd is over 7.00.

As for `COC(=O)[C@H]1CCCCNC(=O)CNC(=O)[C@@H](Cc2ccc(NC(=O)[C@H](Cc3ccccc3F)NC(=O)Cc3ccccc3)cc2)NC(=O)CC2(CCCC2)CC(=O)N1` [Compound 149], the negative-log Kd (pKd) was over 7.00.
